Laboratory results taken from paper PMC5667507, “A novel ^18F-labelled high affinity agent for PET imaging of the translocator protein” (Chemical Science, 2015).

What was measured:
TSPO = test: Dynamic PET scan of a mouse bearing an intracranial U87MG-Luc2 tumour; assay type: in vivo; settings: single mouse, 120 min dynamic PET, early portion of the scan
Description: In order to investigate the potential of [^18F]-AB5186 6 as a PET tracer for TSPO a dynamic PET scan was performed using the Albira imaging system (Carestream Molecular Imaging, USA) in a single mouse bearing an intracranial U87MG-Luc2 tumour for 120 min after intravenous administration of the tracer. Postmortem histological examination of the brain collected at the end of the scan was conducted to visualise the anatomical location of the tumour. Following reconstruction, the entire dynamic PET image was manually co-registered to key anatomical structures of the CT (i.e. the spine, the front limbs and the eye sockets). […]
Fig. 6 Averaged PET images of a U87MG-Luc2 glioma bearing mouse brain following [^18F]-AB5186 injection: (a) 0–40 min averaged, (b) 41–80 min averaged, and (c) 81–120 min averaged; 120 min dynamic scan. […] (f) Tracer kinetics expressed as a ratio of the tumour to contralateral SUVs.
20 min the mice were sacrificed by CO2 asphyxiation, the brains were removed and frozen using a Cryospray (Cellpath). […] The film was developed following an overnight incubation at −20 ° C and scanned using a Bio-Rad GS-800 Calibrated Densitometer with the aid the Quantity One Basic (version 4.6.3) software. Quantification was performed using the ImageJ 1.47v software. […]

[1] = Metabolite analysis of arterial blood samples from baboon (parent fraction); assay type: in vivo, baboon (Papio anubis); settings: baboon arterial plasma, 60 minutes post-injection
Description: Following PET reconstruction and co-registration to an MRI (Fig. 7a), a time–activity curve for the tracer in the whole brain was established (Fig. 7b). […]
generated and SUV determined as the concentration in the VOI divided by the injected dose divided […]
software (GraphPad Softare Inc).
Arterial blood samples were collected from the baboon every 45 s until 6 min after injection of […]
exception of the samples collected for metabolite analysis (3.5 mL each), all blood samples were 1 mL each. Samples for metabolite analysis were collected at 6, 15, 30, 60, 120, 150 and 240 min after radiotracer bolus injection. After blood collection, all samples were kept on ice until analysed.
Radioactivity in whole blood and plasma was assessed with a well-type γ-counter using a 400–1400 keV window (Perkin Elmer Wallac 2480, USA). Plasma samples were processed by acetonitrile denaturation and analysed by HPLC on a Luna C18 column with a mobile phase of MeOH/H2O-Et3N (0.2%) 80/20 at a flow rate of 4 mL/min to estimate the parent fraction.

With `CCN(CC)C(=O)c1nc2ccccc2c(-c2ccccc2)c1C[18F]` [[^18F]-AB5186 6] the “amount of tracer in tumour versus contralateral region (time-activity curve)” value (TSPO) was “greater amounts” and the parent still intact [1] was 29.8%.
